Test results taken from patent publication US20130040982A1, “ORAL SUSTAINED RELEASE FORMULATION OF HUPERZINE A” (Yissum Research Development Company of the Hebrew …, priority 2010, published 2013).
Read-outs that look alike come from different tables or passages of the source.

Columns and labels:
Caco-2 cells = assay type: in vitro ADME
Procedure: Caco-2 cells were obtained from ATCC (Manassas, Va., USA) and grown in 75 cm^2 flasks with approximately 0.5-1×10^6 cells per flask, at a temperature of 37° C. in a 5% CO2 atmosphere with a relative humidity of 95%. The culture growth medium consisted of Dulbecco's Modified Eagle Medium (DMEM) supplemented with 10% heat-inactivated fetal bovine serum (FBS), 1% nonessential amino acids, and 2 mM L-glutamine. The medium was replaced twice weekly. All medium supplements were obtained from Biological Industries (Beth-Haemek, Israel).
Cells in a passage range of 52-60 were seeded at a density of […] on untreated culture inserts of a polycarbonate membrane with 0.4 μm pores and a surface area of 1.1 cm^2. The culture inserts containing Caco-2 monolayers were placed in Costar® 24-Transwell plates (12 mm wells). The culture medium was changed every other day. […]
The permeability coefficient (Papp) for each compound was calculated from the linear plot of drug accumulated versus time, using the following equation: […]
Intestinal permeability towards huperzine A was evaluated using an in vitro model with Caco-2 epithelial colorectal cell culture, and using an ex-vivo animal intestine model (Ussing chamber model), as described in the Materials and Methods section. […]

[1] = tested on: intestinal tissue (duodenum, jejunum, colon); assay type: in vitro ADME, rat
in vivo = conditions: rat, 0.5 mg/kg
Procedure: All surgical and experimental procedures were reviewed and approved by the Animal Experimentation Ethics Committee of the Hebrew University Hadassah Medical School, Jerusalem. Male Wistar rats (Harlan, Israel), 290-350 grams in weight, were used for all surgical procedures.
Animals were anesthetized for the period of surgery by intra-peritoneal injection of 1 ml/kg of ketamine (9%)-xylazine (1%) solution. An indwelling cannula was placed in the right jugular vein of each animal for systemic blood sampling, as described in Jiang et al. [Curr Med Chem 2003, 10:2231-2252]. The cannula was tunneled beneath the skin and exteriorized at the dorsal part of the neck. After completion of the surgical procedure, the animals were transferred to metabolic cages to recover overnight (12-18 hours). During this recovery period and throughout the experiment, food, but not water, was deprived. Animals were randomly assigned to the different experimental groups.
In order to study the pharmacokinetic parameters of huperzine A, identical doses (0.5 mg/kg) of huperzine A dissolved in water were administered to 6 animals by oral gavage needle and to 6 animals by intravenous infusion through the jugular vein cannula followed by injection of 0.2 ml of heparinized saline (50 IU/ml) to ensure the delivery of the whole dose. Systemic blood samples (400 μl) were taken 5 minutes prior to dosing, and at various time periods post-dose, as indicated. To prevent dehydration, equal volumes of physiological solution were introduced to the rats following each withdrawal of a blood sample.
Another group (4 animals) received huperzine A as an intra-peritoneal injection. The doses, the vehicle and the volume used in the intra-peritoneal administration were similar to those used in the oral administration experiments.
Absorption of huperzine A from the colon was studied using an additional experimental group (7 animals). A cannula was placed to the cecum, tunneled beneath the skin and exteriorized at the dorsal part of the neck. Following overnight recovery, the animals were dosed through the colonic cannula and the pharmacokinetic experiment was conducted. The doses, the vehicle and the volume used in the colonic administration were similar to those used in the oral administration experiments. The drug was infused over the course of 90 minutes.
Absorption of huperzine A from the duodenum was studied using another experimental group (5 animals). A cannula was placed to the duodenum, tunneled beneath the skin and exteriorized at the dorsal part of the neck. Following overnight recovery, the animals were dosed through the duodenal cannula and the pharmacokinetic experiment was conducted. […]
Huperzine A concentrations in plasma samples were determined by an HPLC assay. The area under plasma concentrations versus time curves (AUC) for huperzine A in individual rats were analyzed using WinNonlin® Professional software version 5.0.1, according to the non-compartmental analysis model, as were other pharmacokinetic parameters (elimination constant (10; elimination half-life (T1/2); peak concentration (Cmax); and time to reach peak concentration (Tmax)). The absolute bioavailability (F) of huperzine A was calculated from the ratio of the AUCs normalized by dose after oral and intravenous administration.
All tested compounds were analyzed using a Waters 2695 Separation Module HPLC system with a Waters 2475 Fluorescence Detector and a Waters 2996 Photodiode Array Detector (Waters Corporation). […]

[2] = assay type: physicochemical; conditions: 1 μg/ml
Procedure: 0.5 ml of a 1 μg/ml aqueous solution of huperzine A was placed in glass tubes and heated in an oven for 30, 60 or 90 minutes. The samples were then reconstituted with double-distilled water and the amount of remaining huperzine A was determined by HPLC, as described hereinabove.

[3] = in vivo, po, cited from earlier work

Compound: C/C=C1\[C@H]2C=C(C)C[C@]1(N)c1ccc(=O)[nH]c1C2 [huperzine A]
- permeability coefficient (Papp) (Caco-2 cells): lower than that of antipyrine, and higher than that of mannitol
- permeability towards huperzine A in the colon [1]: lower than in the jejunum and duodenum, but was still significant
- bioavailability (in vivo; male, Wistar): ~50%
- half-life (in vivo; male, Wistar): ~1.67 h
- bioavailability following colonic infusion (in vivo; po): significantly lower than the bioavailability following oral bolus
- bioavailability following duodenal infusion (in vivo; po): at least as high as the bioavailability following oral bolus
- time of maximal plasma levels (Cmax) (in vivo; po): 25 to 30 min
- temperature at which degradation of huperzine A was observed [2]: ≥ 150 °C
- bioavailability ([3]; human): 99%
- half-lives ([3]; human): 6 to 12 h
- time to peak serum concentration [3]: approximately 1 hour
